Laboratory results taken from ChEMBL document CHEMBL1201862, “PubChem BioAssay data set” (2004).
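All cell lines were grown in 96-well plates and treated with compound for 48 hours. The concentration for 50% growth inhibition is given as GI50.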 Calls of active or inactive are those of the source. No stated cut-off is given here; in the data, active = GI50 up to about 1.1 µM and inactive = higher.

Key:
Assay in all cases: NCI tumour cell line growth inhibition, 48 h
EKVX = test system: EKVX
HOP-92 = test system: HOP-92
KM12 = test system: KM12
SK-MEL-28 = test system: SK-MEL-28
RXF 393 = test system: RXF 393
HCC 2998 = test system: HCC 2998
SW-620 = test system: SW-620
A549 = test system: A549
NCI/ADR-RES = test system: NCI/ADR-RES
MOLT-4 = test system: MOLT-4
HT-29 = test system: HT-29
LOX IMVI = test system: LOX IMVI
NCI-H23 = test system: NCI-H23
MCF7 = test system: MCF7
SK-OV-3 = test system: SK-OV-3
OVCAR-4 = test system: OVCAR-4
MDA-MB-231 = test system: MDA-MB-231
T47D = test system: T47D
BT-549 = test system: BT-549
COLO 205 = test system: COLO 205
PC-3 = test system: PC-3
Hs-578T = test system: Hs-578T
SK-MEL-2 = test system: SK-MEL-2
UO-31 = test system: UO-31
U-251 = test system: U-251
CCRF-CEM = test system: CCRF-CEM
NCI-H460 = test system: NCI-H460
ACHN = test system: ACHN
A498 = test system: A498
HCT-15 = test system: HCT-15
NCI-H226 = test system: NCI-H226
OVCAR-5 = test system: OVCAR-5
K562 = test system: K562
HCT-116 = test system: HCT-116
SF-268 = test system: SF-268
SF-539 = test system: SF-539
DU-145 = test system: DU-145
M14 = test system: M14
SK-MEL-5 = test system: SK-MEL-5
SF-295 = test system: SF-295
UACC-62 = test system: UACC-62
IGROV-1 = test system: IGROV-1
SN12C = test system: SN12C
786-0 = test system: 786-0
SNB-19 = test system: SNB-19
RPMI-8226 = test system: RPMI-8226
NCI-H522 = test system: NCI-H522
HL-60 = test system: HL-60
UACC-257 = test system: UACC-257
OVCAR-3 = test system: OVCAR-3
MDA-MB-435 = test system: MDA-MB-435
HOP-62 = test system: HOP-62
SNB-75 = test system: SNB-75
TK-10 = test system: TK-10
OVCAR-8 = test system: OVCAR-8
Malme-3M = test system: Malme-3M
CAKI-1 = test system: CAKI-1

In the case of `O=[N+]([O-])c1cc(Cl)ccc1S(=O)(=O)c1ccccc1`, the GI50 (EKVX) is reported as > 100 µM (inactive), the GI50 (HOP-92) is reported as 82 µM (inactive) and the GI50 (KM12) is reported as > 100 µM (inactive). For the same molecule, the GI50 (SK-MEL-28) was > 100 µM (inactive), the GI50 (RXF 393) was 54.6 µM (inactive) and the GI50 (HCC 2998) was > 100 µM (inactive). For the same molecule, the GI50 (SW-620) was > 100 µM (inactive), the GI50 (A549) was > 100 µM (inactive) and the GI50 (NCI/ADR-RES) was > 100 µM (inactive). The GI50 (MOLT-4) was > 100 µM (inactive), the GI50 (HT-29) was 74.6 µM (inactive) and the GI50 (LOX IMVI) was 27.6 µM (inactive). For the same molecule, the GI50 (NCI-H23) was 54.1 µM (inactive), the GI50 (MCF7) was > 100 µM (inactive) and the GI50 (SK-OV-3) was > 100 µM (inactive). For the same molecule, the GI50 (OVCAR-4) was 24.7 µM (inactive), the GI50 (MDA-MB-231) was 51.3 µM (inactive) and the GI50 (T47D) was 66.7 µM (inactive). For the same molecule, the GI50 (BT-549) was 60.7 µM (inactive), the GI50 (COLO 205) was 70 µM (inactive) and the GI50 (PC-3) was > 100 µM (inactive). The GI50 (Hs-578T) was 26.7 µM (inactive), the GI50 (SK-MEL-2) was 17.3 µM (inactive) and the GI50 (UO-31) was > 100 µM (inactive). The GI50 (U-251) was > 100 µM (inactive), the GI50 (CCRF-CEM) was 29.8 µM (inactive) and the GI50 (NCI-H460) was > 100 µM (inactive). For the same molecule, the GI50 (ACHN) was > 100 µM (inactive), the GI50 (A498) was > 100 µM (inactive) and the GI50 (HCT-15) was 27.6 µM. For the same molecule, the GI50 (NCI-H226) was 67.6 µM (inactive), the GI50 (OVCAR-5) was > 100 µM (inactive) and the GI50 (K562) was 65.6 µM (inactive). The GI50 (HCT-116) was 35.5 µM (inactive), the GI50 (SF-268) was 83.6 µM (inactive) and the GI50 (SF-539) was > 100 µM (inactive). For the same molecule, the GI50 (DU-145) was > 100 µM (inactive), the GI50 (M14) was > 100 µM (inactive) and the GI50 (SK-MEL-5) was 49.2 µM (inactive). The GI50 (SF-295) was > 100 µM (inactive), the GI50 (UACC-62) was 53 µM (inactive) and the GI50 (IGROV-1) was > 100 µM (inactive). For the same molecule, the GI50 (SN12C) was > 100 µM (inactive), the GI50 (786-0) was > 100 µM (inactive) and the GI50 (SNB-19) was > 100 µM (inactive). For the same molecule, the GI50 (RPMI-8226) was > 100 µM (inactive), the GI50 (NCI-H522) was 57.4 µM (inactive) and the GI50 (HL-60) was 38.9 µM (inactive). For the same molecule, the GI50 (UACC-257) was 34 µM (inactive), the GI50 (OVCAR-3) was > 100 µM (inactive) and the GI50 (MDA-MB-435) was > 100 µM (inactive). The GI50 (HOP-62) was 39.7 µM (inactive), the GI50 (SNB-75) was 30.8 µM (inactive) and the GI50 (TK-10) was > 100 µM (inactive). The GI50 (OVCAR-8) was > 100 µM (inactive), the GI50 (Malme-3M) was 52.8 µM (inactive) and the GI50 (CAKI-1) was > 100 µM (inactive).

For `O=C(O)C(F)(OC(F)(F)C(F)(F)C(F)(F)F)C(F)(F)F` (stereo not drawn), the GI50 (EKVX) was > 100 µM (inactive), the GI50 (HOP-92) was > 100 µM (inactive) and the GI50 (KM12) was > 100 µM (inactive). For the same molecule, the GI50 (SK-MEL-28) was > 100 µM (inactive), the GI50 (RXF 393) was > 100 µM (inactive) and the GI50 (HCC 2998) was > 100 µM (inactive). The GI50 (SW-620) was > 100 µM (inactive), the GI50 (A549) was > 100 µM (inactive) and the GI50 (NCI/ADR-RES) was > 100 µM (inactive). The GI50 (MOLT-4) was > 100 µM (inactive), the GI50 (HT-29) was > 100 µM (inactive) and the GI50 (LOX IMVI) was > 100 µM (inactive). The GI50 (NCI-H23) was > 100 µM (inactive), the GI50 (MCF7) was > 100 µM (inactive) and the GI50 (SK-OV-3) was > 100 µM (inactive). The GI50 (OVCAR-4) was > 100 µM (inactive), the GI50 (MDA-MB-231) was > 100 µM (inactive) and the GI50 (T47D) was > 100 µM (inactive). The GI50 (BT-549) was > 100 µM (inactive), the GI50 (COLO 205) was > 100 µM (inactive) and the GI50 (PC-3) was > 100 µM (inactive). For the same molecule, the GI50 (Hs-578T) was > 100 µM (inactive), the GI50 (SK-MEL-2) was > 100 µM (inactive) and the GI50 (UO-31) was > 100 µM (inactive). For the same molecule, the GI50 (U-251) was > 100 µM (inactive), the GI50 (NCI-H460) was > 100 µM (inactive) and the GI50 (ACHN) was > 100 µM (inactive). The GI50 (A498) was > 100 µM (inactive), the GI50 (HCT-15) was > 100 µM and the GI50 (NCI-H226) was > 100 µM (inactive). For the same molecule, the GI50 (OVCAR-5) was > 100 µM (inactive), the GI50 (K562) was > 100 µM (inactive) and the GI50 (HCT-116) was > 100 µM (inactive). For the same molecule, the GI50 (SF-268) was > 100 µM (inactive), the GI50 (SF-539) was > 100 µM (inactive) and the GI50 (DU-145) was > 100 µM (inactive). The GI50 (M14) was > 100 µM (inactive), the GI50 (SK-MEL-5) was > 100 µM (inactive) and the GI50 (SF-295) was > 100 µM (inactive). For the same molecule, the GI50 (UACC-62) was > 100 µM (inactive), the GI50 (IGROV-1) was > 100 µM (inactive) and the GI50 (SN12C) was > 100 µM (inactive). For the same molecule, the GI50 (786-0) was > 100 µM (inactive), the GI50 (SNB-19) was > 100 µM (inactive) and the GI50 (RPMI-8226) was > 100 µM (inactive). The GI50 (NCI-H522) was > 100 µM (inactive), the GI50 (HL-60) was > 100 µM (inactive) and the GI50 (UACC-257) was > 100 µM (inactive). For the same molecule, the GI50 (OVCAR-3) was > 100 µM (inactive), the GI50 (MDA-MB-435) was > 100 µM (inactive) and the GI50 (HOP-62) was > 100 µM (inactive). For the same molecule, the GI50 (SNB-75) was > 100 µM (inactive), the GI50 (TK-10) was > 100 µM (inactive) and the GI50 (OVCAR-8) was > 100 µM (inactive). For the same molecule, the GI50 (Malme-3M) was > 100 µM (inactive) and the GI50 (CAKI-1) was > 100 µM (inactive).
